From patent US8163737B2 (Vertex Pharmaceuticals Incorporated, priority 2006, dated 2012)

How the values were obtained:
[1] = molecular target: T1, CGRP receptor (SK-N-MC membrane) (Homo sapiens, UniProt O60894+Q16602); assay: I125-CGRP binding displacement assay on purified SK-N-MC membrane
T1 construct: Purified SK-N-MC membrane was purchased from Perkin Elmer; purchased Perkin Elmer; host or cells: SK-N-MC membrane
Experimental: Purified SK-N-MC membrane was purchased from Perkin Elmer. The membrane was thawed quickly and placed on ice. The compounds were diluted with CGRP binding solution (25 mM Tris-HCl, pH7.4, 5 mM MgCl2, 0.1% BSA and 0.05% Tween). The membrane was diluted 1:20 with the binding solution and homogenized with Tissue Matster-50 Homogenizer (Omni International) for 30 sec. The homogenized membrane was added to compounds in the binding solution. […] After 2 hour incubation at room temperature, the reaction was stopped by rapid filtration through 0.5% PEI treated GF/C filter plate (Perkin Elmer) and the filter plate was washed with ice-cold washing solution (50 mM Tris HCl, pH7.4, 5 mM MgCl2 and 0.1% BSA) using cell harvestor (Tomtec). The radioactivity of the filter plates were read on Topcount (Packard). The nonspecific binding was determined in the control reaction where 1 uM unlabelled CGRP was preincubated with the membrane prior to I125-CGRP addition. The total binding was determined in the control reaction of the membrane and I125-CGRP in the absence of compound. The percent displacement of I125-CGRP with compounds was calculated using nonspecific and total binding controls. The curve fitting was carried out using MOD3.

[2] = molecular target: endogenous CGRP receptor (Homo sapiens, UniProt O60894+Q16602); assay: CGRP functional antagonism using SK-N-MC-BLA (4C10), β-lactamase transcriptional reporter assay; type: cell-based; details: SK-N-MC (4C10) cells, inhibition of β-lactamase expression in the presence of 200 pM CGRP
Sequence of endogenous CGRP receptor (Q16602 23-461): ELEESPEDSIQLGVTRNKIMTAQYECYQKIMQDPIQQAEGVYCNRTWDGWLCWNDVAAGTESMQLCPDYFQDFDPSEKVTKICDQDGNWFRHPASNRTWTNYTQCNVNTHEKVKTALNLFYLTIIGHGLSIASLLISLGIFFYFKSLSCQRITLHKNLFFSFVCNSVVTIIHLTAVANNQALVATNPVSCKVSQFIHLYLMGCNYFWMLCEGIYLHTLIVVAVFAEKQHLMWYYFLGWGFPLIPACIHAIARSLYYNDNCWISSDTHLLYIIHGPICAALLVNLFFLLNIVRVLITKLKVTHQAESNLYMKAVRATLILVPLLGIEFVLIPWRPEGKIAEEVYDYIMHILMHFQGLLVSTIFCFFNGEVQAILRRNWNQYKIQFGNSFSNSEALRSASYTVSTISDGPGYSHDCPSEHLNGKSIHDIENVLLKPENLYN
Sequence of endogenous CGRP receptor (O60894 27-148): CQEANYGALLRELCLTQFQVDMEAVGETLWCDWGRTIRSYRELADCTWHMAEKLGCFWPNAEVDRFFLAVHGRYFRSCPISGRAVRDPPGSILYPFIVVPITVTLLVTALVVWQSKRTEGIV

T1 sequence (Q16602 23-461): as the sequence (Q16602 23-461) above
T1 sequence (O60894 27-148): as the sequence (O60894 27-148) above

SMILES | Ki [1] [µM] | IC50 [2] [µM]
COc1ccc(C2SC(CC(=O)N3CCC(N4Cc5ccccc5NC4=O)CC3)C(=O)N2CCC(C)C)c(F)c1 (centres unmarked) [Compound 283] | < 1 | 1 to 5
CC(C)(C)CCN1C(=O)C(CC(=O)N2CCC(N3CCc4ccccc4NC3=O)CC2)SC1c1ccc(F)cc1F (centres unmarked) [Compound 54] | < 1 | < 1
CC(C)CCN1C(=O)C(CC(=O)N2CCC(N3Cc4ccccc4NC3=O)CC2)SC1c1ccc(F)cc1F (centres unmarked) [Compound 212] | < 1 | < 1
CC(C)(C)CCN1C(=O)C(CC(=O)N2CCC(N3Cc4ccccc4NC3=O)CC2)SC1c1ccccc1N1CCC(O)CC1 (centres unmarked) [Compound 49] | < 1 | < 1
Cc1cc(C2SC(CC(=O)N3CCC(N4Cc5ccccc5NC4=O)CC3)C(=O)N2CC2CCCCC2)cc2cn[nH]c12 (centres unmarked) [Compound 145] | < 1 | < 1
O=C(CC1SC(c2ccccc2)N(CC2CC2)C1=O)N1CCC(N2Cc3ccccc3NC2=O)CC1 (centres unmarked) [Compound 271] | < 1 | < 1
O=C(CC1SC(c2ccccc2)N(Cc2ccc(F)cc2)C1=O)N1CCC(N2Cc3ccccc3NC2=O)CC1 (centres unmarked) [Compound 208] | < 1 | < 1
CC(C)CCN1C(=O)C(CC(=O)N2CCC(N3Cc4ccccc4NC3=O)CC2)SC1c1ccccc1 (centres unmarked) [Compound 12] | < 1 | < 1
O=C(CC1SC(c2ccccc2)N(CC2CCCCC2)C1=O)N1CCC(N2CCc3ccccc3NC2=O)CC1 (centres unmarked) [Compound 147] | < 1 | < 1
CC(C)CCN1C(=O)C(CC(=O)N2CCC(N3Cc4ccccc4NC3=O)CC2)SC12c1ccccc1-c1ccccc12 (centres unmarked) [Compound 14] | < 1 | < 1
CN(C)c1ccccc1C1SC(CC(=O)N2CCC(N3Cc4ccccc4NC3=O)CC2)C(=O)N1CCC(C)(C)C (centres unmarked) [Compound 211] | < 1 | 1 to 5
C#CCN1C(=O)C(CC(=O)N2CCC(N3Cc4ccccc4NC3=O)CC2)SC1c1ccccc1 (centres unmarked) [Compound 116] | < 1 | 1 to 5
CC(C)CCN1C(=O)C(CC(=O)N2CCC(N3CCc4ccccc4NC3=O)CC2)SC1C1CCCCC1 (centres unmarked) [Compound 37] | < 1 | < 1
CC(C)(C)CCN1C(=O)C(CC(=O)N2CCC(n3c(=O)[nH]c4ccccc43)CC2)SC1c1ccccc1-n1cccn1 (centres unmarked) [Compound 297] | < 1 | < 1
CC(C)CCN1C(=O)C(CC(=O)N2CCC(N3Cc4ccccc4NC3=O)CC2)S(=O)(=O)C1c1ccccc1 (centres unmarked) [Compound 122] | < 1 | > 5
CC(C)CCN1C(=O)C(CC(=O)N2CCC(N3CCc4ccccc4NC3=O)CC2)SC1c1ccc(F)cc1F (centres unmarked) [Compound 44] | < 1 | < 1
CC(C)(C)CCN1C(=O)C(CC(=O)N2CCC(N3Cc4ccccc4NC3=O)CC2)SC1c1ccccc1-n1cccn1 (centres unmarked) [Compound 115] | < 1 | < 1
CC(C)(C)CCN1C(=O)C(CC(=O)N2CCC(N3CCc4ccccc4NC3=O)CC2)SC12CCSCC2 (centres unmarked) [Compound 15] | < 1 | < 1
Cc1cc(C2SC(CC(=O)N3CCC(N4Cc5ccccc5NC4=O)CC3)C(=O)N2CCC(C)C)cc2cn[nH]c12 (centres unmarked) [Compound 282] | < 1 | < 1
CC(C)CCN1C(=O)C(CC(=O)N2CCC(n3cc4ccccc4nc3=O)CC2)SC1c1ccccc1 (centres unmarked) [Compound 259] | < 1 | < 1
CC(C)CCN1C(=O)C(CC(=O)N2CCC(N3CCc4ccccc4NC3=O)CC2)SC1c1ccccc1F (centres unmarked) [Compound 149] | < 1 | < 1
CC(C)CCN1C(=O)C(CC(=O)N2CCC(n3cc(-c4ccccc4)[nH]c3=O)CC2)SC1c1ccccc1 (centres unmarked) [Compound 110] | > 5 | > 5

The next lines start with the values.

Ki [1] [µM] | IC50 [2] [µM] | SMILES
< 1 | < 1 | CN1CCN(c2ccccc2C2N(CCC(C)(C)C)C(=O)C(CC(=O)N3CCC(N4Cc5ccccc5NC4=O)CC3)[S+]2[O-])CC1 (centres unmarked) [Compound 307]
< 1 | < 1 | CC(C)(C)CCN1C(=O)[C@H](CC(=O)N2CCC(N3CCc4ccccc4NC3=O)CC2)SC1c1cccc(F)c1N1CCN(C2CCC2)CC1 (some centres unmarked) [Compound 542]
< 1 | < 1 | CC(C)(C)N1CCN(c2c(F)cccc2C2S[C@@H](CC(=O)N3CCC(n4c(=O)[nH]c5ncccc54)CC3)C(=O)N2CCc2ccccc2)CC1 (some centres unmarked) [Compound 509]
< 1 | < 1 | CC(C)(C)CCN1C(=O)[C@H](CC(=O)N2CCC(N3CCc4ccccc4NC3=O)CC2)SC1c1cccc(F)c1N1CC[C@@H](O)C1 (some centres unmarked) [Compound 487]
< 1 | < 1 | CC(C)N1CCN(c2c(F)cccc2C2SC(CC(=O)N3CCC(n4c(=O)[nH]c5ncccc54)CC3)C(=O)N2CCC(C)(C)C)CC1 (centres unmarked) [Compound 341]
< 1 | < 1 | CC(C)CCN1C(=O)C(CC(=O)N2CCC3(CC2)CC(=O)c2ccccc2O3)SC1c1ccccc1N1CCN(C)CC1 (centres unmarked) [Compound 331]
< 1 | < 1 | CC(C)(C)CCN1C(=O)[C@H](CC(=O)N2CCC(N3CCc4ccccc4NC3=O)CC2)SC1c1cccc(F)c1N1CCC(N)C1 (some centres unmarked) [Compound 471]
< 1 | < 1 | CN(C)CCNc1c(F)cccc1C1S[C@@H](CC(=O)N2CCC(N3CCc4ccccc4NC3=O)CC2)C(=O)N1CCC(C)(C)C (stereo partly drawn) [Compound 513, 3-(1-(2-((5S)-2-(2-(2-(Dimethylamino)ethylamino)-3-fluorophenyl)-3-(3,3-dimethylbutyl)-4-oxothiazolidin-5-yl)acetyl)piperidin-4-yl)-4,5-dihydro-1H-benzo[d][1,3]diazepin-2(3H)-one]
< 1 | < 1 | CN1CCN(c2c(Cl)cccc2C2SC(CC(=O)N3CCC(n4c(=O)[nH]c5ncccc54)CC3)C(=O)N2CCC(C)(C)C)CC1 (centres unmarked) [Compound 357]
< 1 | > 5 | CN1CCN(c2ccccc2C2SC(CC(=O)N3CC(N4Cc5ccccc5NC4=O)C3)C(=O)N2CCC(C)(C)C)CC1 (centres unmarked) [Compound 477]
< 1 | 1 to 5 | CC(C)(C)CCN1C(=O)[C@H](CC(=O)N2CCC(N3CCc4ccccc4NC3=O)CC2)S[C@H]1c1cccc(F)c1C1CCNCC1 [Compound 553, 3-(1-(2-((2S,5S)-2-(3-fluoro-2-(piperidin-4-yl)phenyl)-3-(3,3-dimethylbutyl)-4-oxothiazolidin-5-yl)acetyl)piperidin-4-yl)-4,5-dihydro-1H-benzo[d][1,3]diazepin-2(3H)-one]
< 1 | < 1 | CC(C)(C)CCN1C(=O)[C@H](CC(=O)N2CCC(N3CCc4ccccc4NC3=O)CC2)SC1c1cccc(F)c1N1CC[C@H](O)C1 (some centres unmarked) [Compound 486]
< 1 | < 1 | CCN1CCN(c2c(F)cccc2C2SC(CC(=O)N3CCC(N4CCc5ccccc5NC4=O)CC3)C(=O)N2CCC(C)(C)C)CC1 (centres unmarked) [Compound 345]
< 1 | < 1 | CC(C)(C)CCN1C(=O)[C@H](CC(=O)N2CCC(N3CCc4ccccc4NC3=O)CC2)SC1c1cnc(C2CCNCC2)s1 (stereo partly drawn) [Compound 497, (5S)-3-(3,3-Dimethylbutyl)-5-(2-oxo-2-(4-(2-oxo-4,5-dihydro-1H-benzo[d][1,3]diazepin-3(2H)-yl)piperidin-1-yl)ethyl)-2-(2-(piperidin-4-yl)thiazol-5-yl)thiazolidin-4-one]
< 1 | 1 to 5 | CC(C)(C)CCN1C(=O)[C@H](CC(=O)N2CCC(N3CCc4ccccc4NC3=O)CC2)SC1c1cccc(F)c1N1CCC(O)C1 (some centres unmarked) [Compound 463]
